According to patent US5436254A, “Carbostyril derivatives” (Otsuka Pharmaceutical Company, Ltd., priority 1989, dated 1995):

Target: V1 receptor (Rattus norvegicus, UniProt P30560)
Experiment: biochemical
Type: binding
Conditions: not given

Sequence of V1 receptor (P30560 whole entry): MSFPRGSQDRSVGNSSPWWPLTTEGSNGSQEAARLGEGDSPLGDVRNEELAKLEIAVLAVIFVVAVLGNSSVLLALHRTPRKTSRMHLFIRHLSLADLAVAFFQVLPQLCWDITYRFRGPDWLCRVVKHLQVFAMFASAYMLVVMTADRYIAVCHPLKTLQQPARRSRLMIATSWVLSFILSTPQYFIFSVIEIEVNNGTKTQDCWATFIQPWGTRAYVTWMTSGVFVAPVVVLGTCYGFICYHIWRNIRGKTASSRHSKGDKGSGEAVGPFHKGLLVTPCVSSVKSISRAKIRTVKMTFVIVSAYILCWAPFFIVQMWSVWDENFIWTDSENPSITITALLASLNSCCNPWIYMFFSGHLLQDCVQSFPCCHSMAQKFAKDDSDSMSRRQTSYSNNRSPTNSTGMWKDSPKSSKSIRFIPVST

| Compound | IC50 [nM] |
| --- | --- |
| COc1ccc(C(=O)N2CCC(N3C(=O)CCc4ccccc43)CC2)c(OC)c1 [Example 47, 1-[1-(2,4-Dimethoxybenzoyl)-4-piperidinyl]-3,4-dihydrocarbostyril] | 100 |
| CCOc1ccc(C(=O)N2CCC(N3C(=O)CCc4ccc(F)cc43)CC2)c(O)c1 [Example 155, 1-[1-(2-Hydroxy-4-ethoxybenzoyl)-4-piperidinyl]-7-fluoro-3,4-dihydrocarbostyril] | 57 |
| CCCNc1cc(OC)ccc1C(=O)N1CCC(N2C(=O)CCc3ccccc32)CC1 [Example 57, 1-[1-(2-Propylamino-4-methoxybenzoyl)-4-piperidinyl]-3,4-dihydrocarbostyril] | 270 |
| COc1ccc(C(=O)N2CCC(N3C(=O)CCc4ccccc43)CC2)c(OC(C)=O)c1 [Example 61, 1-[1-(2-Acetoxy-4-methoxybenzoyl)-4-piperidinyl]-3,4-dihydrocarbostyril] | 300 |
| NC(=O)CCCOc1ccc(C(=O)N2CCC(N3C(=O)CCc4ccccc43)CC2)cc1 [Example 7, 1-{1-[4-(3-Carbamoylpropoxy)benzoyl]-4-piperidinyl}-3,4-dihydrocarbostyril] | 310 |
| COC(=O)N1CCN(CCCCOc2ccc(C(=O)N3CCC(N4C(=O)CCc5ccccc54)CC3)cc2)CC1 [Example 160, 1-{1-[4-[4-(4-Methoxycarbonyl-1-piperazinyl)butoxy]benzoyl]-4-piperidinyl}-3,4-dihydrocarbostyril] | 220 |

Test system: increase of diastolic pressure caused by Arg-vasopressin
Experiment: Anti-vasopressor activity in vivo (pith rat, increase of diastolic pressure by Arg-vasopressin)
Set-up: species or system male SD rat
Conditions: iv, read-out: ED50 (dose required to reduce the increase of diastolic pressure caused by Arg-vasopressin to 50 % of its control value)

| Compound | ED50 [mg/kg] |
| --- | --- |
| COc1ccc(C(=O)N2CCC(N3C(=O)CCc4ccccc43)CC2)c(OC)c1 [Example 47, 1-[1-(2,4-Dimethoxybenzoyl)-4-piperidinyl]-3,4-dihydrocarbostyril] | 0.4 |
